{"source": "ChEMBL document CHEMBL5120834", "about": "“Design, synthesis and biological evaluation of 3-arylisoquinoline derivatives as topoisomerase I and II dual inhibitors for the therapy of liver cancer” (Eur J Med Chem, 2022)", "system": "Huh-7", "assay": "Induction of apoptosis in human Huh-7 cells assessed as viable cells at 3.5 uM measured after 48 hrs by Annexin V-FITC/propidium iodide staining based flow cytometry (reference value: 96.75%)", "format": "functional", "conditions": "read-out: Activity"}
{"smiles": "c1c(CN2CCCCCC2)c(-c2cc3ccc4c(c3cn2)OCO4)cc2c1OCO2", "values": [{"measurement": "viability at 3.5 µM", "value": 85.3, "unit": "%"}]}
